In one test the target is Topoisomerase IV. As to conditions: high-throughput relaxation assay ref 37; cited from earlier work.
The target in test [1] is T1, S. aureus topoisomerase IV (Staphylococcus aureus, UniProt P0C1S7).
T1 construct: purchased Inspiralis Ltd., Norwich, UK
The test can be described thus: S. aureus topoisomerase IV gel-based assay. Type of test: biochemical. As to conditions: quadruplicates.

The test system of test [2] is S. aureus ATCC 700699 VISA. The test can be described thus: Time-dependent killing. The test is classed as cell-based. The note with it: for Time-kill bacterial count: 10xMIC; for Colony numbers: time-kill raw counts, Samples 1-3. As for the experimental part:
Time-dependent killing experiments were performed as previously. S. aureus ATCC 700699 VISA cells were inoculated to MHBII agar plates and grown overnight at 37 °C. Next, 3 independent stationer-phase starter cultures were grown at 37 °C, 250 rpm overnight, in 3 × 1 mL MHBII broth. Next, 100-fold diluted cultures were prepared from each in 20 mL fresh MHBII medium and grown at 37 °C, 250 rpm until early exponential phase (OD600 = 0.3–0.4; i.e., 5 × 10^5 cells/mL). […] Cells were treated with antibiotics in Erlenmeyer flasks at 37 °C, 150 rpm for 48 hours. […] Next, 50 μL from each dilution were plated on MHBII agar plates, and plates were incubated overnight at 37 °C to calculate CFU per mL.

Test [3] has as its system S. aureus VISA ATCC 700699 GyrB / ParE mutants. Kind of test: MIC of spontaneous resistant mutants (single-step and second-step). Type of test: cell-based. As to conditions: Staphylococcus aureus. As for the experimental part: MICs were determined using a standard serial broth microdilution technique according to the CLSI guidelines. Briefly, bacterial strains were inoculated onto MHBII agar plates and were grown overnight at 37 °C. Next, 3 individual colonies from each strain were inoculated into 1 mL MHBII medium and propagated at 37 °C, 250 rpm overnight. In the cases of Enterococcus and Streptococcus sp., cells were plated to BHI agar plates, and BHI broth was used to determine MICs. […] Following dilutions, each well was seeded with 5×10^4 bacterial cells. All measurements were performed in 3 parallel replicates and to avoid possible edge effects in microwell plates, side rows (A and H) were filled with sterile medium. Following inoculations, plates were covered with lids and wrapped in polyethylene plastic bags to minimize evaporation but allow for O2 transfer. Plates were incubated at 37 °C under continuous shaking at 150 rpm for 18 hours. After incubation, OD600 of each well was measured using a BioTek Synergy 2 microplate reader.

Test [4] deals with S. aureus ATCC 700699 (VISA). Kind of test: microbe, parasite or virus in culture. The note with it: Staphylococcus aureus, read-out: MIC in adapted strains. The test is classed as cell-based. The protocol:
Adaptive laboratory evolution experiments followed an established protocol for automated laboratory evolution and aimed to maximize the drug-resistance increment during a fixed time period. […] Experiments were conducted in 96-well plates, in MHBII medium, by utilizing a checkerboard layout to minimize and monitor cross-contamination. These 96-well deep-well plates (0.5 mL, polypropylene, V-bottom) were covered with sandwich covers (Enzyscreen BV) to ensure an optimal oxygen exchange rate and limit evaporation and were shaken at 150 rpm, 37 °C. […] Following cell transfer, each culture was allowed to grow for 48 hours. At each transfer, cell growth was monitored by measuring the OD600 in a BioTek Synergy 2 plate reader. […] Accordingly, only 1 of the 4 populations was retained for each independently evolving strain. This protocol was designed to avoid population extinction and to ensure that populations with the highest level of resistance are propagated further during adaptive evolution. […] Adaptation of populations was terminated after 20 transfers, i.e., 40 days. Following adaptation, cells from each final population were spread onto MHBII agar plates, and individual colonies were isolated. Next, one colony from each adapted line were subjected to capillary sequencing of gyrB and parE to assess their genotype.

For test [5] the following is noted: cited from earlier work.

Where “and” joins values, the source holds several entries; their conditions need not be identical. Identical values can stand only once. Like-named read-outs stand apart in the source and are kept apart here.

T1 sequence (P0C1S7 whole entry): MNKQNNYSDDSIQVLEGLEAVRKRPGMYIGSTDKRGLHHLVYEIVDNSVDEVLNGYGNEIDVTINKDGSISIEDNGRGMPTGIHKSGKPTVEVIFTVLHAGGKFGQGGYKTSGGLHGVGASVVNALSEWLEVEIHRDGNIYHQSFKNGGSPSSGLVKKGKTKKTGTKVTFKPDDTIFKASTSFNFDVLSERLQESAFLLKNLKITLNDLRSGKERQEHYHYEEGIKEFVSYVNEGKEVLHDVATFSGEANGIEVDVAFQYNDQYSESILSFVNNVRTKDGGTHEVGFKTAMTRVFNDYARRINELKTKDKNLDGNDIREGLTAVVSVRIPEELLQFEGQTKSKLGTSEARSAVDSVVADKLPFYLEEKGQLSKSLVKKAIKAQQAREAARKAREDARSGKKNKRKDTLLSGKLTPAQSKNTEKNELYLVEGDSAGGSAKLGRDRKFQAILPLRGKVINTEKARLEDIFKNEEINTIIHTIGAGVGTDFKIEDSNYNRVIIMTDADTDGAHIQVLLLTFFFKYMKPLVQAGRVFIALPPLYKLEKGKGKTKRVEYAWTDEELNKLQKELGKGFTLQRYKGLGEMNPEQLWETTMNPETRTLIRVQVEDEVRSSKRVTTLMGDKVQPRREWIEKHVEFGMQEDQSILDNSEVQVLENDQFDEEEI
T1 sequence (P0C1U9 whole entry, further chain): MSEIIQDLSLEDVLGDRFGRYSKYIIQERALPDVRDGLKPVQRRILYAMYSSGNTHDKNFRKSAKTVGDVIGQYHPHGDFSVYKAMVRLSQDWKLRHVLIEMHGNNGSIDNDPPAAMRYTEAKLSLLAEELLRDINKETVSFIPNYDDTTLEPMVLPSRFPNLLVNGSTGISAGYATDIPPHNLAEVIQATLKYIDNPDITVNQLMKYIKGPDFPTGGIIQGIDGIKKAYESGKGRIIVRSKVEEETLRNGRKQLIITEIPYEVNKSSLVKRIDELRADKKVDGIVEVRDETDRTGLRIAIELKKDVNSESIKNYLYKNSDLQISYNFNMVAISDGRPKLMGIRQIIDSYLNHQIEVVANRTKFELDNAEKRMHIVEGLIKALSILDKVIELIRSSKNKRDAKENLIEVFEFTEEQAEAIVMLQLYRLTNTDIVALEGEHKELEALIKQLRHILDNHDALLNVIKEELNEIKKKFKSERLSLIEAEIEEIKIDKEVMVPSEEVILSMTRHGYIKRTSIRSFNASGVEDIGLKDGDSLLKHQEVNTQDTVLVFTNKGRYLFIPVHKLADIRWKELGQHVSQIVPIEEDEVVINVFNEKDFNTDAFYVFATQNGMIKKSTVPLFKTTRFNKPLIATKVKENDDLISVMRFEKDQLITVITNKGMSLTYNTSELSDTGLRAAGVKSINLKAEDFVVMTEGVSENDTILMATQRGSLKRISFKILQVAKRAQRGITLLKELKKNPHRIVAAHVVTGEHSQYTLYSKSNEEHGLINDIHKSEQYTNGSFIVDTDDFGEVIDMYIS

In the case of `O=C(O)C(=O)Nc1ccc2nc(NC(=O)c3cc(Br)c(Br)[nH]3)sc2c1` [ULD0], the IC50 at Topoisomerase IV was 10 ± 2 µM.
For `CO[C@@H]1[C@@H](OC(N)=O)[C@@H](O)[C@H](Oc2ccc3c(O)c(NC(=O)c4ccc(O)c(CC=C(C)C)c4)c(=O)oc3c2C)OC1(C)C` [Novobiocin], the IC50 in test [1] turned out to be 2 µM. Besides, the Time-kill bacterial count is on record as 2.80E+05 in test [2] (time 0 hour); 9.90E+04 in test [2] (time 3 hour); 4.70E+04 in test [2] (time 6 hour); 5.80E+03 in test [2] (time 12 hour); 1.50E+03 in test [2] (time 18 hour); 8.00E+02 in test [2] (time 24 hour). The same molecule returned a Time-kill bacterial count in test [2] (time 48 hour) of 6.40E+02. Moreover, the Colony numbers in test [2] (time 0 h, Dilution 100) was 145 and 132 and 137; in test [2] (time 3 h, Dilution 100), 63 and 38 and 48; in test [2] (time 6 h, Dilution 100) it was 21 and 29; in test [2] (time 12 h, Dilution 10), 33 and 23 and 31; in test [2] (time 18 h, Dilution 1), 81 and 65 and 84. In addition, the MIC in test [3] (VISA GyrB I175T) came to 0.032 mg/L; in test [3] (VISA GyrB R144G), 4 mg/L; in test [3] (VISA GyrB R144I) it was 8 mg/L; in test [3] (VISA wt, read-out: MIC), 0.05 mg/L; in test [4], 16 mg/L.
As for `O=c1ccc2ncc(=O)n3c2n1C[C@H]3CN1CCC(NCc2cc3c(cn2)OCCC3)CC1` [Gepotidacin], in test [5], the “increment in resistance level by combination of 2 specific target mutations” value was 2,000 fold and the “resistance level (MIC) of double target mutant” value is 256 mg/L.

(Values after publication PMC7561186, “Rational design of balanced dual-targeting antibiotics with limited resistance” (PLoS Biology, 2020).)
